In US11739098B2 (BRISTOL-MYERS SQUIBB COMPANY, priority 2017, dated 2023):

What was measured:
Format in all cases: cell-based
[1] = target: T1, human TLR7 (Homo sapiens, UniProt Q9NYK1); assay: TLR7 inhibition reporter assay (HEK-Blue cells, SEAP reporter, gardiquimod stimulation); conditions: HEK-Blue cells overexpressing human TLR7, SEAP reporter, gardiquimod 7.5 μM
T1 construct: host or cells: HEK-Blue cells (HEK293-derived reporter line)
T1 sequence (Q9NYK1 27-1049): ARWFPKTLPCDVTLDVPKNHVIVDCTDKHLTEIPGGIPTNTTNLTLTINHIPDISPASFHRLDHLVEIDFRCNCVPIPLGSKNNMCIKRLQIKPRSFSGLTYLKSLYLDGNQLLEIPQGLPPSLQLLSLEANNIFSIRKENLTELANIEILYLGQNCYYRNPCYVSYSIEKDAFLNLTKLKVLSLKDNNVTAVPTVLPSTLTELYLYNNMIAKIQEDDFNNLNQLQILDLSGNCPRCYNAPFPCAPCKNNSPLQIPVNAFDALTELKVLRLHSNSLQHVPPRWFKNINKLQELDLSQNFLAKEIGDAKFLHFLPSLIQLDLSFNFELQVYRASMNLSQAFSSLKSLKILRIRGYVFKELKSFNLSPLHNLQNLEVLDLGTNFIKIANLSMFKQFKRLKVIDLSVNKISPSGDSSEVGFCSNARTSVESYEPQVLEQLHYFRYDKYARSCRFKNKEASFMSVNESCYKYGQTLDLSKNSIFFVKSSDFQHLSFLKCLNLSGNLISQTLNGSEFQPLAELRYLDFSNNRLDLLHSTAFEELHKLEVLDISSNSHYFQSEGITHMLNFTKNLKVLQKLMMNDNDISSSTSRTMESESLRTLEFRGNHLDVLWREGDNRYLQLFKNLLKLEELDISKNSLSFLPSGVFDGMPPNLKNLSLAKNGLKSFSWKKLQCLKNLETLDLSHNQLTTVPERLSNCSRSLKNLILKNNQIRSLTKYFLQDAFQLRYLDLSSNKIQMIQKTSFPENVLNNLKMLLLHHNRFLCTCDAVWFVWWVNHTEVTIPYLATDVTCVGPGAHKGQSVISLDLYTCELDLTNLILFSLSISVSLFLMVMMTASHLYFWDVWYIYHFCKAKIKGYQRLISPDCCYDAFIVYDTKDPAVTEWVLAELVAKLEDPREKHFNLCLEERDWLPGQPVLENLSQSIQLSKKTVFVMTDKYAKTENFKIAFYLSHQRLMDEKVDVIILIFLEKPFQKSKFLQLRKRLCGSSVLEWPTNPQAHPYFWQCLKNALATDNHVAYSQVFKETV
Method in brief: (§1)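 Percent inhibition of agonist-induced SEAP secretion in HEK-Blue cells after 22 h at 37 °C. Stimuli: 7.5 μM gardiquimod, 15.9 μM R848, 5 nM ODN2006 for TLR7, TLR8 and TLR9, added after 30 min compound exposure over a 0.05 nM–50 μM range.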

[2] = target: T2, human TLR8 (Homo sapiens, UniProt Q9NR97); assay: TLR8 inhibition reporter assay (HEK-Blue cells, SEAP reporter, R848 stimulation); conditions: HEK-Blue cells overexpressing human TLR8, SEAP reporter, R848 15.9 μM
T2 construct: host or cells: HEK-Blue cells (HEK293-derived reporter line)
T2 sequence (Q9NR97 27-1041): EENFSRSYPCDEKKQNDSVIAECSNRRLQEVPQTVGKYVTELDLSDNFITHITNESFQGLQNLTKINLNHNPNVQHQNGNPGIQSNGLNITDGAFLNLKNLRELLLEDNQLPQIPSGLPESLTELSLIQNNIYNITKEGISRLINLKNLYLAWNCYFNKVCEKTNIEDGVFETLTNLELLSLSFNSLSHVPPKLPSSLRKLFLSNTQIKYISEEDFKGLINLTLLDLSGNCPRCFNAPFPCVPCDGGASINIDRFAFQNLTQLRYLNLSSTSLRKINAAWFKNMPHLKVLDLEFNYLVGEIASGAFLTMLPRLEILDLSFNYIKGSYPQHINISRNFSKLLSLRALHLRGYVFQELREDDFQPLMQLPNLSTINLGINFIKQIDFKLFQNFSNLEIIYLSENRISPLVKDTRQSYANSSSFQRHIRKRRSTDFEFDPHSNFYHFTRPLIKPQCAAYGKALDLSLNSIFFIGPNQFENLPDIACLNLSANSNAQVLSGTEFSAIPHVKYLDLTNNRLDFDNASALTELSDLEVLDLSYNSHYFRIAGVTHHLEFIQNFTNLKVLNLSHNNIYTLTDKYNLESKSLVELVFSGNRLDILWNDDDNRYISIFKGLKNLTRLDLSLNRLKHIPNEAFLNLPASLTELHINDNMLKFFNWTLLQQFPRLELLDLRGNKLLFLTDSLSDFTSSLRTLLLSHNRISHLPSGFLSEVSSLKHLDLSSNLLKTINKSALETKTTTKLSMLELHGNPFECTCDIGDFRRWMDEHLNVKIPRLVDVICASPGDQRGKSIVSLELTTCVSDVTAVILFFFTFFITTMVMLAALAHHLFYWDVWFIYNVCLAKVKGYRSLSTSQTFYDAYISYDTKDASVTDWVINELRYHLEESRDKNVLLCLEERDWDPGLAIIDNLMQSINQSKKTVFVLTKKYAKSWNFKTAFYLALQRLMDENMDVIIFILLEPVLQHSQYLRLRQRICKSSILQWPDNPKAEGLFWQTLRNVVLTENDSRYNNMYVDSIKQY
Method in brief: as §1

[3] = target: T3, human TLR9 (Homo sapiens, UniProt Q9NR96); assay: TLR9 inhibition reporter assay (HEK-Blue cells, SEAP reporter, ODN2006 stimulation); conditions: HEK-Blue cells overexpressing human TLR9, SEAP reporter, ODN2006 5 nM
T3 construct: host or cells: HEK-Blue cells (HEK293-derived reporter line)
T3 sequence (Q9NR96 26-1032): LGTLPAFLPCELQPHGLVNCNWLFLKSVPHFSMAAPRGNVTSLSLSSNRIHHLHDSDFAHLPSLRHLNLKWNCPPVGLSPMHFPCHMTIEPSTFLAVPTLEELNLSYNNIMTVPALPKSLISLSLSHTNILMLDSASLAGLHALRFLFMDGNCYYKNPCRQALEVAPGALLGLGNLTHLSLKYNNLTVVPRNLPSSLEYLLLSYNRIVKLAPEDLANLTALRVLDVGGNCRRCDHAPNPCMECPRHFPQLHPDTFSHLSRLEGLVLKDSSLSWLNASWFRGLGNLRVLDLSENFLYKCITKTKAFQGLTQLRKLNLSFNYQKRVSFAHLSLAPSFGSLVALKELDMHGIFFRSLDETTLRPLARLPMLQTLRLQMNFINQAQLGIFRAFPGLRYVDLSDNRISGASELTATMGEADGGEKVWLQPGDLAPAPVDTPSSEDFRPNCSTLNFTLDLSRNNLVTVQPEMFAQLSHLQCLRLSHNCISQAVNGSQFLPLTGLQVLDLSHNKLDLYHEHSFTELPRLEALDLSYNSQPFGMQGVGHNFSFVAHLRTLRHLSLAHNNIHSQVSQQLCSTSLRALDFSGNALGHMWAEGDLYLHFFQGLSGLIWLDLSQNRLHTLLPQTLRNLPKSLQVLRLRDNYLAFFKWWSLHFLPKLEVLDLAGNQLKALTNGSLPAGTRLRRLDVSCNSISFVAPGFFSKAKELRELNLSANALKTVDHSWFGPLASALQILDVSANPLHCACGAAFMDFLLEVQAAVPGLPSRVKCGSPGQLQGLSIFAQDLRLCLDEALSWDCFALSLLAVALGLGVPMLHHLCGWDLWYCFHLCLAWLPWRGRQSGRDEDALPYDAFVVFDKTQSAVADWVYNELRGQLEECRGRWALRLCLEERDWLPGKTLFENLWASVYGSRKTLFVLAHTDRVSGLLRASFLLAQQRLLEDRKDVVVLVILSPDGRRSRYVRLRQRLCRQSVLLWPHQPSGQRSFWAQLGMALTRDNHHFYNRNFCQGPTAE
Method in brief: as §1

IC50 [1] [µM]	IC50 [2] [µM]	IC50 [3] [µM]	Compound
0.1 to 1	0.1 to 1	0.1 to 1	COc1cc(-c2[nH]c3ccc(C4CCN(CC(=O)N(C)C)CC4)cc3c2C(C)C)cc2nc(C)cn12 [Example 334, 2-(4-(3-isopropyl-2-(5-methoxy-2-methylimidazo[1,2-a]pyridin-7-yl)-1H-indol-5-yl)piperidin-1-yl)-N,N-dimethylacetamide]
< 0.1	< 0.1	1 to 50	CC(C)c1c(-c2cn(C)c3c(=O)n(C)ccc23)[nH]c2ccc(C3CCN(CC(=O)N(C)C)CC3)cc12 [Example 297, 2-(4-(2-(1,6-dimethyl-7-oxo-6,7-dihydro-1H-pyrrolo[2,3-c]pyridin-3-yl)-3-isopropyl-1H-indol-5-yl)piperidin-1-yl)-N,N-dimethylacetamide]
< 0.1	0.1 to 1	0.1 to 1	Cc1cn2cc(-c3[nH]c4ccc(C5CCN(C(C)C)CC5)cc4c3C(C)C)ccc2n1 [Example 945, 6-(3-isopropyl-5-(1-isopropylpiperidin-4-yl)-1H-indol-2-yl)-2-methylimidazo[1,2-a]pyridine]
< 0.1	< 0.1	1 to 50	Cc1cc(-c2[nH]c3ccc(C4CCN(CC(C)(C)O)CC4)cc3c2C(C)C)cc2cccnc12 [Example 771, 1-(4-(3-isopropyl-2-(8-methylquinolin-6-yl)-1H-indol-5-yl)piperidin-1-yl)-2-methylpropan-2-ol]
< 0.1	< 0.1	1 to 50	Cc1cc(-c2[nH]c3ccc(C4CCN(C(=O)CCN5CCOCC5)CC4)cc3c2C(C)C)cn2nnnc12 [Example 627, 1-(4-(3-isopropyl-2-(8-methyltetrazolo[1,5-a]pyridin-6-yl)-1H-indol-5-yl)piperidin-1-yl)-3-morpholinopropan-1-one]
< 0.1	< 0.1	0.1 to 1	Cc1c(-c2[nH]c3ccc(C4CCN(C(=O)CN(C)C)CC4)cc3c2C(C)C)cn2ccnc2c1C [Example 549, 2-(dimethylamino)-1-(4-(2-(7,8-dimethylimidazo[1,2-a]pyridin-6-yl)-3-isopropyl-1H-indol-5-yl)piperidin-1-yl)ethan-1-one]
< 0.1	< 0.1	1 to 50	Cc1cc(-c2[nH]c3ccc(C4CCN(Cc5ncn(C)n5)CC4)cc3c2C(C)C)cc2cnnn12 [Example 890, 5-(3-isopropyl-5-(1-((1-methyl-1H-1,2,4-triazol-3-yl)methyl)piperidin-4-yl)-1H-indol-2-yl)-7-methyl-[1,2,3]triazolo[1,5-a]pyridine]
1 to 50	< 0.1	0.1 to 1	CC(C)c1c(-c2ccnc3c2ccn3S(C)(=O)=O)[nH]c2ccc(C3CCN(C(=O)CN(C)C)CC3)cc12 [Example 450, 2-(dimethylamino)-1-(4-(3-isopropyl-2-(1-(methylsulfonyl)-1H-pyrrolo[2,3-b]pyridin-4-yl)-1H-indol-5-yl)piperidin-1-yl)ethanone]

Second part, the compound before the results:

Compound	IC50 [1] [µM]	IC50 [2] [µM]	IC50 [3] [µM]
CCc1c(-c2ccnc3[nH]ncc23)[nH]c2ccc(C3CCN(Cc4cncs4)CC3)cc12 [Example 928, 5-((4-(3-ethyl-2-(1H-pyrazolo[3,4-b]pyridin-4-yl)-1H-indol-5-yl)piperidin-1-yl)methyl)thiazole]	0.1 to 1	< 0.1	1 to 50
COc1c(C)c(-c2[nH]c3ccc(C4CCN(CC(C)(C)O)CC4)cc3c2C(C)C)nn2ncnc12 [Example 748, 1-(4-(3-isopropyl-2-(8-methoxy-7-methyl-[1,2,4]triazolo[1,5-b]pyridazin-6-yl)-1H-indol-5-yl)piperidin-1-yl)-2-methylpropan-2-ol]	< 0.1	< 0.1	1 to 50
CCN(CC)C(=O)C1CCCN(CC(=O)N2CCC(c3ccc4[nH]c(-c5ccnc6[nH]ccc56)c(C(C)C)c4c3)CC2)C1 (stereo not drawn) [Example 568, N,N-diethyl-1-(2-(4-(3-isopropyl-2-(1H-pyrrolo[2,3-b]pyridin-4-yl)-1H-indol-5-yl)piperidin-1-yl)-2-oxoethyl) piperidine-3-carboxamide]	< 0.1	< 0.1	1 to 50
Cc1c(-c2ncc3cc[nH]c3n2)[nH]c2ccc(C3CCN(C4CCN(C(C)C)CC4)CC3)cc12 [Example 809, 2-(5-(1′-isopropyl-[1,4′-bipiperidin]-4-yl)-3-methyl-1H-indol-2-yl)-7H-pyrrolo[2,3-d]pyrimidine]	1 to 50	1 to 50	0.1 to 1
OCc1c(-c2ccnc3[nH]ncc23)[nH]c2ccc(C3CCNCC3)cc12 [Example 176, (5-(piperidin-4-yl)-2-(1H-pyrazolo[3,4-b]pyridin-4-yl)-1H-indol-3-yl)methanol]	1 to 50	1 to 50	1 to 50
CC(C)c1c(-c2n[nH]c3nc[nH]c(=O)c23)[nH]c2ccc(C3CCNCC3)cc12 [Example 21, 3-(3-isopropyl-5-(piperidin-4-yl)-1H-indol-2-yl)-1,5-dihydro-4H-pyrazolo[3,4-d]pyrimidin-4-one]	1 to 50	0.1 to 1	1 to 50
